From a melting point compilation (Tetko et al.; mined from patent text by program, amines drawn as free bases though some values may be those of a salt) come the findings set out here.

As to `O=S(=O)(CC1CCCCC1)c1nc[nH]n1`, the melting point (usually the temperature, or range, at which the solid turns liquid) lay within 172 to 175 °C. Consider `CC(=O)N1CCN=C1Nc1cccc2c1CCC2`, for which the melting point lay in the range of 180 to 182 °C.

`CC(O)(CF)C(=O)Nc1ccc(S(=O)(=O)c2ccncc2)cc1` (configuration not stated) displayed a melting point of 209 to 211 °C. As for `O=C(O)CC1CCc2c(cccc2OC2CCCCO2)C1` (configuration not stated), the melting point fell in the range of 104 to 109 °C. For the molecule `O=C1Nc2ccc(F)c(F)c2C(=O)N2CCC[C@@H]12`, the melting point is over 250 °C.

Molecule `CN(C)c1n[nH]c(=O)n1N` showed a melting point of 205 °C. In turn, `O=C(O)COc1ccc(C(F)(F)F)cc1C(=O)NCc1ccc(Br)cc1F` had a melting point of 169 to 170 °C.

Consider `Cc1c(NC(=O)c2cccc(OCC(=O)OC(C)(C)C)c2)c2ccccn2c1C(=O)c1ccc(NC(=O)C(F)(F)F)c(C(=O)OCc2ccccc2)c1`, for which the melting point amounted to 200 °C. With `CCOC(=O)c1ccc(C2=NOC(c3cc(Cl)cc(Cl)c3)(C(F)(F)F)C2)cc1OC` (configuration not stated), the melting point lay within 142 to 144 °C. The molecule `O=C1C(Br)=CC2(C=C1Br)CCNC1=C2C2=NCCc3c[nH]c(c32)C1=O` yielded a melting point of over 360 °C. As to `CCOc1cc2c(=O)cc(C(=O)O)[nH]c2ccc1=O`, the melting point is over 280 °C.

Molecule `CCOC(=O)C1=C(C)NC(CO)=C(C(=O)OCC)C1c1cccc(O)c1` (configuration not stated) displayed a melting point of 162 to 163 °C.

`O=C1CCC(N2C(=O)c3cccc(CNC(=O)c4cnc5ccccc5n4)c3C2=O)C(=O)N1` (configuration not stated) yielded a melting point of over 260 °C. For `Cc1ncc(CN2CCc3cc(-c4ccccc4)ccc3C2)c(N)n1`, the melting point is 186 to 188 °C.

As to `CCOC(=O)c1c[nH]c2nc(NCc3ccc(Br)cc3)nn2c1=O`, the melting point lay within 286 to 287 °C. `CCC(CC)NC(=O)c1ccc(-c2scc(-c3ccccc3Cl)c2CC(=O)NC(=N)NCCCO)cc1` returned a melting point of 109 to 110 °C. As to `COc1cc(Nc2c(C#N)cnc3cc(/C=C/CCN4CCN(C)CC4)ccc23)c(Cl)cc1Cl`, the melting point lay in the range of 152 to 154 °C. Consider `CCN1c2ccccc2NC(=S)c2cccnc21`, for which the melting point lay in the range of 194 to 196 °C. `CC12CCC(O)CC1=CCC1C2CCC2(C)C(n3nccn3)=CCC12` (configuration not stated) yielded a melting point of 176 to 177 °C.

`NCC(O)c1cc(Cl)cc(Cl)n1` (configuration not stated) registered a melting point of 117 to 118 °C.

`O=C1c2cccc([N+](=O)[O-])c2C2CC3(CCN12)OCCO3` (configuration not stated) returned a melting point of 206 °C. In turn, `COCc1cc(-c2ccccc2N)[nH]n1` showed a melting point of 74 to 78 °C.

The molecule `CN(C)c1ccc(NC(=O)N(C[C@H]2CC[C@H](CN(C(=O)Nc3ccc(N(C)C)cc3)C3CCCCCC3)CC2)C2CCCCCC2)cc1` came in with a melting point of 159 to 164 °C. In the case of `O=C(CCCc1cnoc1-c1ccccc1)Nc1ccc(-n2ccnc2)cc1`, the melting point was in the range of 132 to 133 °C.

The molecule `CC(C)Nc1cccnc1N1CCN(C(=O)c2cc3cc(NS(=O)(=O)N4CCOCC4)ccc3[nH]2)CC1` displayed a melting point of 210 to 212 °C.

Take `COC1=CC23CCN(C)C(Cc4ccc(OC)c(Oc5ccccc5)c42)C3=CC1C` (configuration not stated): the melting point fell in the range of 177 to 178 °C. As for `O=C(C1=C(N2CCCC2)CCC1)c1cccnc1Cl`, the melting point was 102 to 104 °C. Next, `CN(C(=O)OCc1ccccc1)[C@@H](CC(N)=O)C(=O)N[C@@H](Cc1ccccc1)[C@H](O)C(=O)N1CCC[C@H]1C(=O)NC(C)(C)C`: 100 to 103 °C; `O=C(O)c1ccc2c(c1)nc(-c1ccc(Oc3cccc(OCc4ccncc4)c3)cc1)n2C1CCCCC1`: 235 to 237 °C. Regarding `C#CCCCCC(=O)Nc1nc2nn(C)cc2c2nc(-c3ccco3)nn12`, the melting point lay within 208 to 215 °C.

`COCCN(C)c1nccc(Oc2ccc(NC(=O)c3cc(F)cc(N4CCOCC4)c3)c3ccccc23)n1`: the melting point was 96 to 98 °C.

In turn, `COC(=O)NC(=O)CC1=C(Cc2ccc3c(Br)cccc3c2)C(=O)CCC1` showed a melting point of 128 to 129 °C.

The molecule `CCCCOc1ccc(C(=O)c2cccc(C(=O)O)c2)c(OC)c1` yielded a melting point of 144 to 145 °C. Regarding `COCc1c(C(=O)OC(C)C)ncc2[nH]c3c(c12)C(=O)CCC3`, the melting point fell in the range of 243 to 245 °C. In turn, `O=C1c2cccnc2CCCC1Br` (configuration not stated) showed a melting point of 193 to 195 °C.

As for `Cc1cc(S(=O)(=O)O)c(NC(=O)Nc2cc3ccccc3[nH]2)cc1Cl`, the melting point was 284 to 286 °C. In turn, `CCCc1c(O)c(Br)cc(C(C)=O)c1O` gave a melting point of 67 °C. Take `Nc1nc(N)nc(NC2CCCCC2)n1`: the melting point turned out to be 151 °C. Next, `FC(F)(F)c1cccc(-c2cc(C(F)(F)F)n3ncc(I)c3n2)c1`: 142 °C. Regarding `COc1ccccc1-n1c(=O)[nH]c2c(C(N)=O)nc(-c3cccc4[nH]ncc34)nc21`, the melting point came out at 280 °C. Take `CCC(=CC=C(C#N)C#N)NCCO`: the melting point fell in the range of 88 to 90 °C.

As for `COC(=O)COc1c(-c2ccccc2)c(=O)[nH]c2cc(Cl)ccc12`, the melting point lay in the range of 188 to 191 °C.

In turn, `O=C(O)c1cnn2c(C(F)F)cc(-c3ccc(Cl)cc3)nc12` returned a melting point of 232 °C. Next, `CN1CCN(c2cc(F)cc3c(=O)cc(C(=O)Nc4ccc(N5CCN(C(=O)CCO)CC5)cc4)oc23)CC1`: 195 to 199 °C. For `CCCc1c(OCCCCCC(=O)O)ccc(C(C)=O)c1O` the value was 62 to 64 °C; for `COc1ncccc1NC(=O)[C@H]1[C@H](c2ccccc2)C1(C)C` (relative stereo), 152 to 154 °C; for `O=C(O)CCCCCNC(=O)C(F)(F)F`, 90 to 91 °C.

On to `CC(C)(C)OC(=O)[C@@H]1C[C@H](C(=O)OC(C)(C)C)N1`, for which the melting point was 47 to 48.5 °C.

For `NC1CCCN(c2ncc3ncnc(Nc4ccc(F)c(Cl)c4)c3n2)CC1` (configuration not stated), the melting point lay in the range of 122 to 124 °C. `Cn1nc(-c2ccc(F)cc2)c(-c2ccncc2)c1Br` registered a melting point of 174 °C. For the molecule `Nc1ncnc2c1c(Br)cn2COCCO`, the melting point was 163 to 164 °C. Next, `CC(C)(C)c1cccc(C(C)(C)C)c1OS(C)(=O)=O`: 83 °C; `C[C@H](NC(=O)c1c[nH]c2ncc(-c3ccc(C(=O)NCc4ccccc4)s3)nc12)C(C)(C)C`: 225 to 226 °C; `COc1ccc(-c2cnn(-c3ccc(N4C[C@H](CNC(C)=O)OC4=O)cc3F)c2)cc1`: 226 to 228 °C. Regarding `CC(C)(C)OC(=O)NC12CCC1CN(c1c(F)cc3c(=O)c(C(=O)O)cn(C4CC4)c3c1F)C2` (configuration not stated), the melting point lay within 211 to 215 °C. Take `O=c1cc2c(nn1-c1ccc(Cl)cc1)-c1cc(Br)sc1S(=O)CC2` (configuration not stated): the melting point fell in the range of 184 to 185 °C. `COc1cc(OC)nc(Oc2cccc(NC(=O)C(C)(C)C)c2C(=O)O)n1` came in with a melting point of 192 to 195 °C.

Turning to `CC1CN(C)CC(C)(c2cccc(O)c2)O1` (configuration not stated), the melting point was 142 to 143 °C.

`N#CC(=Cc1cc(F)ccc1[N+](=O)[O-])C(N)=O`: the melting point fell in the range of 162 to 166 °C.

`COc1ccc(C(=O)Nc2ccccc2)cc1` showed a melting point of 156 to 158 °C. `CSc1cc2c(cc1C(F)(F)F)N(C(=O)Nc1ccc(C(=O)Nc3ccncc3)cc1)CC2` returned a melting point of 158 to 160 °C. `CC(=O)O[C@H](CCc1ccc([N+](=O)[O-])cc1)C(=O)O`: the melting point was 108 to 109 °C. Consider `COc1ccc(Cl)cc1C(=O)N(C)OC`, for which the melting point was 80 to 83 °C. For `COC(=O)c1ccc(OCCNC(=O)c2ccc(C(C)C)cc2)cc1` the value was 89 to 91 °C; for `COc1cc2c(cc1O)C(OC)CN(Cc1ccccc1OC)C2` (configuration not stated), 45 to 47 °C. As for `CC(=O)c1c(-c2ccc(C(F)(F)F)cc2)[nH]c(-c2ccncc2)c1C`, the melting point lay in the range of 178 to 180 °C. Regarding `CCCCC(=O)Nc1ccccc1C(F)(F)F`, the melting point was determined as 63 °C. For `O=C(Nc1ccc(Cl)cn1)c1ccc(OC(F)F)c2oc3ccccc3c12`, the melting point lay within 155 to 157 °C. Next, `CCOC(=O)NNc1ccc(N(C)CCO)nn1`: 131 to 133 °C; `CC(C)(C)OC(=O)Nc1ccc(-c2ccc(F)cc2)cc1NC(=O)CC(=O)c1sccc1C#N`: 156 to 157 °C. Next, `CCOC(=O)c1sc(SC(C)C)c2c1CCC(N=[N+]=[N-])C2=O` (configuration not stated): 118 to 119 °C.

In turn, `CCOC(=O)c1cc(-c2ccncc2)[nH]c1N` registered a melting point of 193 to 195 °C. `N#CC(c1ccccc1)(c1ccccc1)C1CN(C2CCCCC2)C1` yielded a melting point of 111 to 114 °C. For `C=C(Cn1ccnc1)c1ccccc1OCc1ccc(-c2ccccc2)cc1` the value was 90 to 92 °C; for `O=c1ncc(Br)cn1Cc1cccs1`, 188 to 190 °C. For the molecule `COC1=NS(=O)(=O)N(Cc2ccccc2)C(=O)N1`, the melting point was in the range of 141 to 144 °C.

`COc1ccc(-n2nc(S)nc2-c2ccccc2)cc1` displayed a melting point of 260 °C. `N#CC(=Cc1ccc(O)c(O)c1)C(N)=S` gave a melting point of 213 °C. Turning to `CCCCCCCCCCCCc1nnn(CC(=O)Nc2c(OC)cc(OC)cc2OC)n1`, the melting point fell in the range of 144 to 146 °C. Take `CCCCCC(=O)C=Cc1ccc(Cl)cc1`: the melting point is 44 to 47 °C.

The molecule `COC(=O)Nc1ccc(C(=O)N(C)C)c(S(=O)(=O)NC(C)(C)C)c1` had a melting point of 184 to 188 °C. Next, `CC(=O)NC(Oc1ccccc1)C(=O)NCc1ccccc1` (configuration not stated): 125 to 128 °C. Molecule `O=C(O)c1ccc(Oc2ccc([N+](=O)[O-])cc2)cc1O` displayed a melting point of 195 to 197 °C. For `COCCCNc1ccc([N+](=O)[O-])cc1` the value was 57 to 59 °C. For `CC(=O)c1c([N+](=O)[O-])[nH]c(-c2ccncc2)c1C`, the melting point was 187 to 188 °C.

With `COc1ccc(S(=O)(=O)c2cnc(C)nc2Nc2c(C)cc(C)cc2C)cc1`, the melting point was 153 to 155 °C.

Consider `CCCCCSc1cc(C(=O)O)cc(N)c1Oc1ccccc1`, for which the melting point was 98 °C. The molecule `Cc1cccc(-c2sc(N)nc2-c2ccc3ncoc3c2)n1` gave a melting point of 188 to 190 °C.

Take `CC(=O)C(C)Sc1cc(C(C)(C)C)c(O)c(C(C)(C)C)c1` (configuration not stated): the melting point lay in the range of 94 to 97 °C. As for `CCCCc1cc2cc(C(=O)OCC)ccn2c1`, the melting point lay in the range of 47 to 48 °C. With `C[C@@H](N)[C@](O)(Cn1cncn1)c1ccc(F)cc1F`, the melting point was in the range of 156 to 157 °C.

Molecule `COC(=O)CCSc1ncccc1C#N` yielded a melting point of 101 to 102 °C.
